From PubChem BioAssay AID720615 (Broad Institute, 2013)
Inconclusive results are not listed. The source made the active and inactive calls. No rule for the calls is given here.

Tests used:
[1] = system: U251 HRAS cells, caspase 3/7 luminescence, apoptosis; assay: caspase 3/7 activation in U251 cells, mechanism study for HRAS target identification, cell-based, luminescence, several timepoints, dry powder (AID 720615)
[2] = as above; settings: U251 HRAS cells, caspase 3/7 luminescence, apoptosis; at 35 µM (top of the series)

Row | SMILES | AC40 [1] | AC40 ([1]; measured here: timepoint 1 caspase activation) | AC40 ([1]; measured here: timepoint 2 caspase activation) | AC40 ([1]; measured here: timepoint 3 caspase activation) | caspase 3/7 activation [2]
1 | COc1ccc(N(C(=O)CCl)C(C(=O)NCCc2ccccc2)c2cccs2)cc1Cl (stereo not given) | 5.7 µM | 14.7 µM | 1.45 µM | 0.948 µM | 
2 | CCC(=O)N(c1ccc(OC)c(Cl)c1)C(C(=O)NCCc1ccccc1)c1cccs1 (stereo not given) |  |  |  |  | 4.74% (inactive)
